# From patent US20250369032A1 (priority 2023, published 2025)
# Several values for one entry are separate records, joined by “and”; a condition that tells them apart may be missing. Identical values can stand only once. Like-named read-outs stand apart in the source and are kept apart here.
# Tests used:
# [1] = target: alkaline phosphatase (Bos taurus, UniProt P19111); format: biochemical; set-up: purchased Sigma Aldrich, St. Louis, MO P0114 (original source); P7640 (second source, 'new AP' condition only)
# alkaline phosphatase, sequence (P19111 20-506): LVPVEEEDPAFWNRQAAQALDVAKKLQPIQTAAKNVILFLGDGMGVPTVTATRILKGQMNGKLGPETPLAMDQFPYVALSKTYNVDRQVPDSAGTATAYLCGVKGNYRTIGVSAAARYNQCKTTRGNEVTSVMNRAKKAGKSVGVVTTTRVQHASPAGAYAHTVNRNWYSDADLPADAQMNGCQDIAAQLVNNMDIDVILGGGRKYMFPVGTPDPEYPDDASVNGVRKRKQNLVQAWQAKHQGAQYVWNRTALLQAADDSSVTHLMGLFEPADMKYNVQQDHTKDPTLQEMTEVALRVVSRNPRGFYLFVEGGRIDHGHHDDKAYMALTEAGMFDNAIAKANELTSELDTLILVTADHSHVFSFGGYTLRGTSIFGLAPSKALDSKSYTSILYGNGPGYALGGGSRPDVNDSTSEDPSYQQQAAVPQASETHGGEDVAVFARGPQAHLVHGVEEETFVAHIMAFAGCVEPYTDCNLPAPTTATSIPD
# [2] = test system: skin; conditions: cited from earlier work
# [3] = test system: endogenous skin phosphatase; format: biochemical, porcine; conditions: optical density compared to the naïve condition
# Procedure: Our next studies involved applying the test substance (500 μL) directly to the epidermis side of previously frozen porcine skin (Spear Products, Coopersburg, PA) that is placed in a holder that only exposes the epidermis side for 30 minutes, adding phosphate buffered saline (PBS) with added sodium azide (metabolic inhibitor that ensure no viable tissue), then aliquoting into cuvettes to read at an optical density of 300 nm. […] So, at the end of the initial studies described above, almost out of frustration, we tried to probe for released phosphatase activity using p-Nitrophenyl phosphate disodium salt (PNPP; Sigma Aldrich, St. Louis, MO) substrate solution to detect any presence of phosphatase.
# • 1. Thaw 2 pieces of frozen porcine skin • a. Punch out as many skin discs and mount in holders • 2. Label cuvettes (3 for each chemical)
# • 1. Add 500 μL of test chemical to holder; incubate at room temperate for 30 minutes • 2. After 30 minutes, add 2 mL of PBS-Azide to both the holder containing the test chemical; forcefully pipette and re-pipette 10 times • 3. From the holder, aliquot 400 μL into 3 cuvettes; forcefully pipette and re-pipette 3 times before dispensing into cuvettes
# Skin corrosion by GHS Category 1 dermal corrosive chemicals results in the disintegration of the epidermis into the dermis.
# [4] = test system: porcine skin; conditions: R 1 and 2
# Procedure: Our initial studies involved using fresh and frozen porcine skin “buttons”. These buttons were punched out of porcine skin (Spear Products, Cooopersburg, PA) using a […] biopsy punch tool. Three different kinds of skin buttons were prepared from fresh porcine skin, frozen porcine skin, and frozen porcine skin with the fatty layer removed. […] The next day, the tubes were taken out and vortexed and 500 μL of the solution was aliquoted into cuvettes to read at three different optical density wavelengths (OD190, OD290, OD300) to evaluate the best response.
# • 1. Thaw 2 pieces of frozen porcine skin • 2. Punch out buttons: 24 buttons in each tube filled with 40 mL PBS-Azide
# • 1. Plate layout for dosing:
# • 1. Dose each tissue with 140 μL of test chemical • 2.
# • 1. Take out of incubator and vortex pulse 3× • 2. Aliquot 500 μL to cuvette and read results at OD190, OD290, and OD300
# There were three readings done at an optical density of 190, 290, and 300 nm to evaluate the best response. […] To address the variable exposure conditions, our next studies involved placing a larger porcine skin section into a holder that exposes only the epidermis side with no potential for test chemical exposure from the backside or through the sides.
# [5] = 1:100, 20 μL into 180 μL, 0.5 mL microcentrifuge tubes, 4 hours RT, PNPP 60 min, 405 nm
# [6] = average of R1-R3, 1:100, 20 μL into 180 μL, 4 hours RT, PNPP 60 min, 405 nm
# [7] = skin, chemical lists of the protocols
# [8] = fresh porcine skin, 140 μL, 18 hours at 37° C. in PBS-Azide
# [9] = frozen porcine skin with fat layer removed
SMILES,"A1-Results R1 [1, 5]","A1-Results R3 [1, 5]","A1-Results AVG [1, 6]",A1-Results AVG [1],A1-Results R1 [1],A1-Results R3 [1],"in vivo GHS [2, 7]",percent of phosphatase measured (first reading) [3] [%],percent of phosphatase measured (second reading) [3] [%],"percent of phosphatase measured, average [3] [%]",further results
CSc1ccc(C=O)cc1,3.354,3.238,3.344,,,,,,,,
CC/C=C\CC1=C(C)CCC1=O,,,,3.502,3.502,3.502,,,,,
CC(C)=CCC/C(C)=C/CO,3.406,3.502,3.470,,,,"Cat. 2 (Category 2 (irritation; mean score of ≥2.3 and ≤4.0 for erythema/eschar or for oedema in at least 2 of 3 tested animals at 24, 48, and 72 hours or inflammation that persists to the end of 14 days))",,,,
CCCCCBr [1-Bromopentane],3.428,3.056,3.261,,,,"Cat. 2 (Category 2 (irritation; mean score of ≥2.3 and ≤4.0 for erythema/eschar or for oedema in at least 2 of 3 tested animals at 24, 48, and 72 hours or inflammation that persists to the end of 14 days))",,,,
CCCCCCCCCCO [1-Decanol],,,,3.449,3.502,3.380,,,,,
CC(C)(O)CCc1ccccc1 [2-Methyl-4-phenyl-2-butanol],,,,,,,,98.6,100.0,99.3,Corrosive ([2]; Table 2): No
BrCCc1ccccc1 [(2-Bromoethyl)benzene],,,,,,,,100.0,100.0,100.0,"Corrosive ([2]; rabbit, in vivo): No"
CC(=O)OCc1ccccc1 [Benzyl Acetate],3.401,3.502,3.463,,,,,,,,
O=C(OCc1ccccc1)c1ccccc1O [Benzyl Salicylate],3.502,3.445,3.464,,,,,,,,
CC(C=O)Cc1ccc(C(C)C)cc1 (stereo not shown) [Cyclamen aldehyde],3.405,3.502,3.470,,,,"Cat. 2 (Category 2 (irritation; mean score of ≥2.3 and ≤4.0 for erythema/eschar or for oedema in at least 2 of 3 tested animals at 24, 48, and 72 hours or inflammation that persists to the end of 14 days))",100.0,100.0,100.0,"OD190 [4, 8]: 0.694 and 0.716; OD290 [4, 8]: 0.290 and 0.477; OD300 [4, 8]: 0.274 and 0.447; OD190 [4, 9]: 0.222 and 0.214; OD290 [4, 9]: 0.195 and 0.153; OD300 [4, 9]: 0.142 and 0.119; OD290 ([4]; frozen porcine skin): 1.023 and 0.955; OD300 ([4]; frozen porcine skin): 0.901 and 0.852; Corrosive ([2]; Table 2): No; in vivo GHS ([2]; skin, Tables 1A-1C and 2): Cat. 2"
CCCCCCC=O [Heptanal],,,,3.196,3.409,3.049,,100.0,94.4,97.2,"Corrosive ([2]; rabbit, in vivo): No; in vivo GHS ([2]; rabbit, in vivo): Cat. 2"
CC(CC=O)CCCC(C)(C)O (stereo not shown) [Hydroxycitronellal],,,,3.356,3.412,3.154,,,,,
CC(C)O [Isopropanol],,,,3.423,3.484,3.305,,,,,
CCCCCCCCCCCCCC(=O)OC(C)C [Isopropyl Myristate],,,,3.451,3.373,3.484,,,,,
OCCc1ccccc1 [Phenylethyl alcohol],,,,3.469,3.502,3.403,,,,,
OCCOCCOCCO [Triethylene glycol],,,,,,,,29.5,28.2,28.9,"Corrosive ([2]; rabbit, in vivo): No"
CC1=CCC(C(C)(C)O)CC1 (stereo not drawn) [alpha-Terpineol],3.502,3.502,3.502,,,,,,,,
CCCSSCCC [di-n-Propyl disulfide],3.467,3.395,3.445,,,,"Cat. 2 (Category 2 (irritation; mean score of ≥2.3 and ≤4.0 for erythema/eschar or for oedema in at least 2 of 3 tested animals at 24, 48, and 72 hours or inflammation that persists to the end of 14 days))",68.1,71.6,69.9,"Corrosive ([2]; Table 2): No; in vivo GHS ([2]; skin, Tables 1A-1C and 2): Cat. 2"
CCCCCCCN [n-Heptylamine],,,,2.557,2.141,2.862,Cat. 1B/1C,,,,OD405 readings (FIG. 6D) [1]: 3.244 and 3.057 and 3.152; prediction based on OD405 values (FIG. 6B) [1]: incorrectly predicted
"C=C(C)[C@@H]1CC=C(CO)CC1 [p-Metha-1,8-dien-7-ol]",,,,,,,"Cat. 2 (Category 2 (irritation; mean score of ≥2.3 and ≤4.0 for erythema/eschar or for oedema in at least 2 of 3 tested animals at 24, 48, and 72 hours or inflammation that persists to the end of 14 days))",,,,
